From patent publication US20250136592A1, “C-LINKED INHIBITORS OF ENL/AF9 YEATS” (Bridge Medicines, priority 2021, published 2025)
Where two headings read alike, the source gives them in different places.

Key:
[1] = target: ENL YEATS domain (Homo sapiens (Human), UniProt Q03111); experiment: TR-FRET ENL Screening Assay; conditions: 6xHIS ENL YEATS domain binding to H3K9cr peptide
Method: Compounds of the invention were tested in a TR-FRET ENL Screening Assay. TR-FRET (time-resolved fluorescence energy transfer) can be used to quantify ENL YEATS domain binding to a crotonylated histone peptide (H3K9cr, aa1-20). Streptavidin-Europium (Eu) chelate binds the biotinylated peptide, while Anti-6×HIS ULight™ binds 6×HIS-ENL. When Eu chelate is excited at 320 nm, fluorescence resonance energy transfer (FRET) occurs if Eu and ULight are made proximal by ENL binding to the acyl-peptide.
Low control (LC) wells received 5 μL of assay buffer instead of ENL protein. […] The response at each compound concentration minus the LC value was converted to percent inhibition of the vehicle control group response (HC-LC).

[2] = test system: MV4:11 (MLL-AF4 MLL) cells; experiment: Cell viability assay (CellTiter-Glo), 12 days; format: cell-based; conditions: MV4;11 cells, 12 day, read-out: CTG_MV4, 11 12 DAY_EC50
Method: The assays were conducted over 12 days and the cells being split on days 4 and 8. […] Blank wells received cell culture medium. Plates were incubated for 4 days at 37° C. with 5% CO2. On days 4 and day 8 the cells were split and incubated for a further 4 days whilst an aliquot of cells were taken for the CTG readout. For the cell splitting, 270 nL of compounds or DMSO was added to a new 96 well cell culture plate to which 90 μL of medium plus 10 μL of cells from the original assay plate (after mixing) or 100 μL of medium (Blank wells) was added. This was repeated on day 8.
Cell viability was assessed using the CellTiter-Glo® homogeneous luminescent assay kit (Promega, G9243), according to the manufacturer's instructions. This quantifies ATP, which indicates the presence of metabolically active cells. […] The resulting data were analyzed as follows:
where vehicle are cells treated with 0.3% DMSO, Blank is culture medium. IC50 determinations were calculated by fitting the curve using XLfit (v5.3.1.3): Y=Bottom+(Top−Bottom)/(1+10^((LogIC50−X)*HillSlope)).

Sequence of ENL YEATS domain (Q03111 1-138): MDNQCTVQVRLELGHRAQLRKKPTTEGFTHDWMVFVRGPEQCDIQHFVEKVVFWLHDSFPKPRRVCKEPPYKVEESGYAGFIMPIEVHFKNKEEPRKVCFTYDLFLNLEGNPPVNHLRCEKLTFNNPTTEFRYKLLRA

Row | Structure (SMILES) | IC50 [1] [nM] | EC50 ([2]; Homo sapiens, 288 h) [nM] | EC50 [2] [nM]
1 | Cc1nn(C)c2cc(C(=O)Nc3cc4[nH]c([C@H]5CCCN5C)cc4cn3)ccc12 [Example 40] | 34 | 88 | –
2 | CN1CCC[C@@H]1c1cc2cnc(NC(=O)c3ccc4c(N)nccc4c3)cc2[nH]1 [Example 41] | 14 | 72 | –
3 | Cc1ncc2cc(C(=O)Nc3cc4[nH]c([C@H]5CCCN5C)cc4cn3)ccn12 [Example 42] | 84 | 117 | –
4 | CN1CCC[C@@H]1c1cc2cnc(NC(=O)c3ccc4[nH]nc(Cl)c4c3)cc2[nH]1 [Example 43] | 37 | 256 | –
5 | CN1CCC[C@@H]1c1cc2cnc(NC(=O)c3ccn4ccnc4c3)cc2[nH]1 [Example 45] | 293 | 6950 | –
6 | CN1CCC[C@@H]1c1cc2cnc(NC(=O)c3ccc4[nH]nc(F)c4c3)cc2[nH]1 [Example 46] | 61 | 257 | –
7 | CNc1c(OC)cnc2cc(C(=O)Nc3cc4[nH]c([C@H]5CCCN5C)cc4cn3)ccc12 [Example 47] | 28 | 745 | –
8 | CN1CCC[C@@H]1c1cc2cnc(NC(=O)c3ccc4c(cnn4C)c3)cc2[nH]1 [Example 49] | 26 | 1440 | –
9 | CNc1nn(C)c2cc(C(=O)Nc3cc4[nH]c([C@H]5CCCN5C)cc4cn3)ccc12 [Example 50] | 103 | 2320 | –
10 | COCCNc1nn(C)c2cc(C(=O)Nc3cc4[nH]c([C@H]5CCCN5C)cc4cn3)ccc12 [Example 51] | 100 | 1200 | –
11 | COc1c(C(=O)Nc2cc3[nH]c([C@H]4CCCN4C)cc3cn2)ccc2c(C)n[nH]c12 [Example 54] | 318 | 621 | –
12 | CN1CCC[C@@H]1c1cc2cnc(NC(=O)c3ccc4c(F)nn(C)c4c3)cc2[nH]1 [Example 55] | 18 | 688 | –
13 | Cc1nc2ccc(C(=O)Nc3cc4[nH]c([C@H]5CCCN5C)cc4cn3)cc2o1 [Example 56] | 131 | 4780 | –
14 | CN1CCC[C@@H]1c1cc2cnc(NC(=O)c3ccc4c(c3)nnn4C)cc2[nH]1 [Example 57] | 106 | > 30000 | –
15 | Cc1[nH]c2ccc(C(=O)Nc3cc4[nH]c([C@H]5CCCN5C)cc4cn3)cc2c1C [Example 58] | 208 | 8580 | –
16 | CN1CCC[C@@H]1c1cc2cnc(NC(=O)c3ccc4c(c3)ncn4C)cc2[nH]1 [Example 59] | 53 | 15800 | –
17 | CN1CCC[C@@H]1c1cc2cnc(NC(=O)c3ccc4c(ccn4C)c3)cc2[nH]1 [Example 60] | 148 | 298 | –
18 | Cc1nc2cc(C(=O)Nc3cc4[nH]c([C@H]5CCCN5C)cc4cn3)ccc2[nH]1 [Example 61] | 90 | 2860 | –
19 | CN1CCC[C@@H]1c1cc2cnc(NC(=O)c3ccc4ccn(C)c4c3)cc2[nH]1 [Example 62] | 465 | 597 | –
20 | CN1CCC[C@@H]1c1cc2cnc(NC(=O)c3ccc4ncn(C)c4c3)cc2[nH]1 [Example 63] | 95 | 7020 | –
21 | Cc1nnn2cc(C(=O)Nc3cc4[nH]c([C@H]5CCCN5C)cc4cn3)ccc12 [Example 64] | 91 | 773 | –
22 | Cc1nccc2cc(C(=O)Nc3cc4[nH]c([C@H]5CCCN5C)cc4cn3)ccc12 [Example 65] | 18 | 54 | –
23 | Cc1ccc2cc(C(=O)Nc3cc4[nH]c([C@H]5CCCN5C)cc4cn3)ccc2n1 [Example 66] | 29 | 1630 | –
24 | CC(C)c1ncc2cc(C(=O)Nc3cc4[nH]c([C@H]5CCCN5C)cc4cn3)ccn12 [Example 67] | 75 | 38 | –

Row | Structure (SMILES) | IC50 [1] [nM] | EC50 ([2]; Homo sapiens, 288 h) [nM] | EC50 [2] [nM]
25 | CN1CCC[C@@H]1c1cc2cnc(NC(=O)c3ccn4c(C5CC5)ncc4c3)cc2[nH]1 [Example 68] | 35 | 48 | –
26 | Cc1ncn2ccc(C(=O)Nc3cc4[nH]c([C@H]5CCCN5C)cc4cn3)cc12 [Example 70] | 110 | 189 | –
27 | CN1CCC[C@@H]1c1cc2cnc(NC(=O)c3ccc4nnn(C)c4c3)cc2[nH]1 [Example 72] | 120 | 2570 | –
28 | CN1CCC[C@@H]1c1cc2ncc(NC(=O)c3ccc4c(F)n[nH]c4c3F)cc2[nH]1 [Example 74] | 79 | 1420 | –
29 | Cc1ncc2c(F)c(C(=O)Nc3cnc4cc([C@H]5CCCN5C)[nH]c4c3)ccn12 [Example 75] | 126 | 2410 | –
30 | Cc1ccc2cc(C(=O)Nc3ccc4cc([C@H]5CCCN5C)[nH]c4c3)c(F)cc2n1 [Example 76] | 136 | – | 723
31 | CN1CCC[C@@H]1c1cc2cnc(NC(=O)c3ccc4c(C(F)F)nn(C)c4c3)cc2[nH]1 [Example 78, (R)-3-(difluoromethyl)-1-methyl-N-(2-(1-methylpyrrolidin-2-yl)-1H-pyrrolo[3,2-c]pyridin-6-yl)-1H-indazole-6-carboxamide] | 14 | 167 | –
32 | CN1CCCC[C@@H]1c1cc2cnc(NC(=O)c3ccc4c(F)nn(C)c4c3)cc2[nH]1 [Example 81, (R)-3-fluoro-1-methyl-N-(2-(1-methylpiperidin-2-yl)-1H-pyrrolo[3,2-c]pyridin-6-yl)-1H-indazole-6-carboxamide] | 51 | 292 | –
33 | CN1CCC[C@@H]1c1cc2ncc(NC(=O)c3ccc4cnn(C5CC5)c4c3)cc2[nH]1 [Example 82] | 102 | 409 | –
34 | Cc1nccc2ccc(C(=O)Nc3cc4[nH]c([C@H]5CCCN5C)cc4cn3)cc12 [Example 83] | 64 | 229 | –
35 | CN1CCC[C@@H]1c1cc2cnc(NC(=O)c3ccc4c(cnn4-c4ccncc4)c3)cc2[nH]1 [Example 84] | 31 | 134 | –
36 | Cc1nn(C)c2ccc(C(=O)Nc3cc4[nH]c([C@H]5CCCCN5C)cc4cn3)cc12 [Example 87] | 47 | 172 | –
37 | Cc1nccc2ccc(C(=O)Nc3cc4[nH]c([C@H]5CCCCN5C)cc4cn3)cc12 [Example 88] | 47 | 69 | –
38 | Cc1ncc2ccc(C(=O)Nc3cc4[nH]c([C@H]5CCCCN5C)cc4cn3)cn12 [Example 89] | 175 | 252 | –
39 | Cc1nc(C)n2cc(C(=O)Nc3cc4[nH]c([C@H]5CCCCN5C)cc4cn3)ccc12 [Example 90] | 51 | 144 | –
40 | Cc1ncn2ccc(C(=O)Nc3cc4[nH]c([C@H]5CCCCN5C)cc4cn3)cc12 [Example 92] | 93 | 100 | –
41 | Cc1nnc(C)c2cc(C(=O)Nc3cc4[nH]c([C@H]5CCCCN5C)cc4cn3)ccc12 [Example 93] | 76 | 146 | –
42 | CN1C(=O)Cc2ccc(C(=O)Nc3cc4[nH]c([C@H]5CCCCN5C)cc4cn3)cc21 [Example 94] | 220 | 368 | –
43 | CN1CCCC[C@@H]1c1cc2cnc(NC(=O)c3ccc4c(c3)N(C)S(=O)(=O)C4)cc2[nH]1 [Example 96] | 250 | 319 | –
44 | CN1CCCC[C@@H]1c1cc2cnc(NC(=O)c3ccc4c(ccc(=O)n4C)c3)cc2[nH]1 [Example 99, (R)-1-methyl-N-(2-(1-methylpiperidin-2-yl)-1H-pyrrolo[3,2-c]pyridin-6-yl)-2-oxo-1,2-dihydroquinoline-6-carboxamide] | 56 | 293 | –
45 | CN1CCCC[C@@H]1c1cc2cnc(NC(=O)c3ccc4c(=O)n(C)cnc4c3)cc2[nH]1 [Example 101, (R)-3-methyl-N-(2-(1-methylpiperidin-2-yl)-1H-pyrrolo[3,2-c]pyridin-6-yl)-4-oxo-3,4-dihydroquinazoline-7-carboxamide] | 177 | 426 | –
46 | CN1CCCC[C@@H]1c1cc2cnc(NC(=O)c3ccc4ncn(C)c(=O)c4c3)cc2[nH]1 [Example 102, (R)-3-methyl-N-(2-(1-methylpiperidin-2-yl)-1H-pyrrolo[3,2-c]pyridin-6-yl)-4-oxo-3,4-dihydroquinazoline-6-carboxamide] | 200 | 289 | –
47 | Cc1nn(C)c(=O)c2cc(C(=O)Nc3cc4[nH]c([C@H]5CCCCN5C)cc4cn3)ccc12 [Example 103, (R)-1,3-dimethyl-N-(2-(1-methylpiperidin-2-yl)-1H-pyrrolo[3,2-c]pyridin-6-yl)-4-oxo-3,4-dihydrophthalazine-6-carboxamide] | 148 | 292 | –
48 | Cc1nn(C)c(=O)c2ccc(C(=O)Nc3cc4[nH]c([C@H]5CCCCN5C)cc4cn3)cc12 [Example 104, (R)-2,4-dimethyl-N-(2-(1-methylpiperidin-2-yl)-1H-pyrrolo[3,2-c]pyridin-6-yl)-1-oxo-1,2-dihydrophthalazine-6-carboxamide] | 160 | 492 | –
